Source: patent US12404250B2, “PARP inhibitors for treating cancer and asthma” (Oregon Health & Science University, priority 2018, dated 2025)

Assays:
PARP 1 = PARP 1 (Homo sapiens, UniProt P09874); test: In vitro IC50, PARP1; type: biochemical; conditions: SEM from a minimum of three dose-response experiments
PARP 2 = PARP 2 (Homo sapiens, UniProt Q9UGN5); test: In vitro IC50, PARP2; type: biochemical; conditions: SEM from a minimum of three dose-response experiments
PARP 3 = biological target: T1, PARP 3 (Homo sapiens, UniProt Q9Y6F1); test: In vitro IC50, PARP3; type: biochemical; conditions: SEM from a minimum of three dose-response experiments
T1 sequence (Q9Y6F1 1-533): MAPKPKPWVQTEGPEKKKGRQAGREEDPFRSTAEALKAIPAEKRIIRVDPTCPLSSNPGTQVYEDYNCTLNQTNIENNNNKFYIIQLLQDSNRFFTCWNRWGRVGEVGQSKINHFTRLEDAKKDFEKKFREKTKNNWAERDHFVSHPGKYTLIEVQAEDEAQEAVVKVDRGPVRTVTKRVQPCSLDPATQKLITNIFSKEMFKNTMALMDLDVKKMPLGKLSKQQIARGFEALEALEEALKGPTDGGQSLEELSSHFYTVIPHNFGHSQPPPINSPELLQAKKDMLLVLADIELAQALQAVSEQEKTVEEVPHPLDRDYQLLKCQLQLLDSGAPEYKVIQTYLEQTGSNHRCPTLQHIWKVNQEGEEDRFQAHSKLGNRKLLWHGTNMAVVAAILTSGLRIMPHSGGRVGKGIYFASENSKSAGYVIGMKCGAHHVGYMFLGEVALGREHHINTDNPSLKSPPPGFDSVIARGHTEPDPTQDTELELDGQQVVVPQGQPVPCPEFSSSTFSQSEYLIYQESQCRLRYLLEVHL

PARP5 bcat = biological target: T2, PARP5 bcat (Homo sapiens, UniProt Q9H2K2); test: In vitro IC50, PARP5bcat; type: biochemical; conditions: SEM from a minimum of three dose-response experiments
T2 construct: bcat
T2 sequence (Q9H2K2 959-1164): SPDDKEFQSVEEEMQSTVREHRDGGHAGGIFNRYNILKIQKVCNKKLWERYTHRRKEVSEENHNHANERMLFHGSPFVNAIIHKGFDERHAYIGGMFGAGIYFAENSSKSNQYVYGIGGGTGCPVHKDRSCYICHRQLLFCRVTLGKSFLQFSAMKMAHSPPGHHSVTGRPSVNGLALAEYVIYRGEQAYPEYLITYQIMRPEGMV

PARP10cat = biological target: T3, PARP10cat (Homo sapiens, UniProt Q53GL7); test: In vitro IC50, PARP10cat; type: biochemical; conditions: SEM from a minimum of three dose-response experiments
T3 construct: bcat; cat; PARP11
T3 sequence (Q53GL7 806-1025 limits assumed): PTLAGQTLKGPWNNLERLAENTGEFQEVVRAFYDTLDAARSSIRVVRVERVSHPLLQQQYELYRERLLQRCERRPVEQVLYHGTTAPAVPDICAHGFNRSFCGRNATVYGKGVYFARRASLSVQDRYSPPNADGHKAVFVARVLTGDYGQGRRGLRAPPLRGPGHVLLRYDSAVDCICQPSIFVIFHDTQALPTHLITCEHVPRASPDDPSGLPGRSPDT

PARP11 = biological target: T4, PARP11 (Homo sapiens, UniProt Q9NR21); test: In vitro IC50, PARP11 (plate assay, MARylation of SRPK2 and NXF1); type: biochemical; conditions: SEM from a minimum of three dose-response experiments
T4 sequence (Q9NR21 1-338): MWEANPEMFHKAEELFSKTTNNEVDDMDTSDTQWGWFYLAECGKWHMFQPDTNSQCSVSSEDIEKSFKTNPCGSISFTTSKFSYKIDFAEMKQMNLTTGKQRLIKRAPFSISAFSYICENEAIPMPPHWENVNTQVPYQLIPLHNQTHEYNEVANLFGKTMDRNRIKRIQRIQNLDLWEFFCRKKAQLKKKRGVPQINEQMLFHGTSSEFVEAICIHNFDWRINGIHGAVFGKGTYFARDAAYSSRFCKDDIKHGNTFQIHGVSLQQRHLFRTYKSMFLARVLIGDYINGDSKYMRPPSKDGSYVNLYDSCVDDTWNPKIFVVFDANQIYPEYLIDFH
From the text: Curves generated using Prism 7 (Graph Pad); error bars indicate ±SEM from at least two replicates.

PARP14 cat-wwe = biological target: T5, PARP14 cat-wwe (Homo sapiens, UniProt Q460N5); test: In vitro IC50, PARP14 cat-wwe; type: biochemical; conditions: SEM from a minimum of three dose-response experiments
T5 construct: PARP14 cat-wwe; no borders given for the assay protein
T5 sequence (Q460N5 1523-1801 limits assumed): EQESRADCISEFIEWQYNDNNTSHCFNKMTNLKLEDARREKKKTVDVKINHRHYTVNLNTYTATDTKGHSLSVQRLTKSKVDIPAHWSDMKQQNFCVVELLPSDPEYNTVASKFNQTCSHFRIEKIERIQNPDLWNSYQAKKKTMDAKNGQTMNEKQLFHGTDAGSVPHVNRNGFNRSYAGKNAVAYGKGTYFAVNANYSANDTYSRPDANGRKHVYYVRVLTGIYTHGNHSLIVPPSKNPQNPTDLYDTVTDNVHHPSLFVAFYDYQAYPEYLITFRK

PARP15 cat = biological target: T6, PARP15 cat (Homo sapiens, UniProt Q460N3); test: In vitro IC50, PARP15 cat; type: biochemical; conditions: SEM from a minimum of three dose-response experiments
T6 construct: cat-wwe; cat
T6 sequence (Q460N3 482-678 limits assumed): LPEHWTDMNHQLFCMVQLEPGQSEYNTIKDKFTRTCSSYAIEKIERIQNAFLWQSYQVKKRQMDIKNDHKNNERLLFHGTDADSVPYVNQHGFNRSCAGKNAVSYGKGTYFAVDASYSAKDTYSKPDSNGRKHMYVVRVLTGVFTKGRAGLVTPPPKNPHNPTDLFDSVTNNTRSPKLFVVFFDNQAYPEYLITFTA

PARP1/2 = biological target: T7, PARP1/2 (Homo sapiens, UniProt P09874); test: H2O2-stimulated PARP1/2 activity in HEK 293T cells (Western blot); type: cell-based; conditions: H2O2 500 μM for 15 min, Western blot with ADPr binding reagent
T7 construct: expressed in transfected cells; host or cells: HEK 293T
T7 sequence (P09874 2-1014): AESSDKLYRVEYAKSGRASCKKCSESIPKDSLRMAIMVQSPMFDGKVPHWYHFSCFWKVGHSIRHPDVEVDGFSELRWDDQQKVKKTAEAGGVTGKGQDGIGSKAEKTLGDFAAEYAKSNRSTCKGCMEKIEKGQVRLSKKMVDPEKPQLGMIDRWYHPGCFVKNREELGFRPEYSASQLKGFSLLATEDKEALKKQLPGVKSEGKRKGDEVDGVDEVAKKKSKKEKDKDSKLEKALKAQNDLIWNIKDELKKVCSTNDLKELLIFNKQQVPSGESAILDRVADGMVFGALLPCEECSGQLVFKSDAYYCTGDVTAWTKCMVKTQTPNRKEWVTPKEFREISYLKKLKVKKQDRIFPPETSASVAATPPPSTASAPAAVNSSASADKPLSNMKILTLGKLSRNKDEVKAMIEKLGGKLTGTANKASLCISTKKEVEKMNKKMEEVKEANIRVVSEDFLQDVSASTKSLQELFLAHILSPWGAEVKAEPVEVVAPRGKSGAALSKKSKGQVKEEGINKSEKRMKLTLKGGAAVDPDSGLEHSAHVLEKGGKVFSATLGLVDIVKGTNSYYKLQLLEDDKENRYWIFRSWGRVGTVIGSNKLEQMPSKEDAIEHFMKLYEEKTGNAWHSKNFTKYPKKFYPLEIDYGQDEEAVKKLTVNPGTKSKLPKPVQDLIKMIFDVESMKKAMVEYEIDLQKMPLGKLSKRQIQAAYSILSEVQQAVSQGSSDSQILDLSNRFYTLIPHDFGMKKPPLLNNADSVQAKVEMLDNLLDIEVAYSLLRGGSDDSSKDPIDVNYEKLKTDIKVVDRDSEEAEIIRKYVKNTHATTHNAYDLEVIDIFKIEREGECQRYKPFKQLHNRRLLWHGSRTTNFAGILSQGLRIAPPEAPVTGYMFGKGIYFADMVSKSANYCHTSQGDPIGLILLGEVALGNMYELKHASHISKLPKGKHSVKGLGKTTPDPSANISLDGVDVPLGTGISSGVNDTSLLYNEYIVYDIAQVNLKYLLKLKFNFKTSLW
Procedure: Lysates were prepared and PAR/MARylation was analyzed by Western blot with an ADP-ribose (ADPr) binding reagent. Blot was also probed with antibodies for GFP and actin. The band of interest represents auto-PARylated GFP-PARP1. […] Lysates were prepared and PAR/MARylation was analyzed by Western blot with an ADP-ribose (ADPr) binding reagent. Blot was also probed with antibodies for GFP and actin.
Lysates were prepared and PAR/MARylation was analyzed by Western blot with an ADP-ribose (ADPr) binding reagent. Blot was also probed with antibodies for GFP and actin. The band of interest represents auto-PARylated GFP-PARP1.

Sequence of PARP 1 (P09874 whole entry): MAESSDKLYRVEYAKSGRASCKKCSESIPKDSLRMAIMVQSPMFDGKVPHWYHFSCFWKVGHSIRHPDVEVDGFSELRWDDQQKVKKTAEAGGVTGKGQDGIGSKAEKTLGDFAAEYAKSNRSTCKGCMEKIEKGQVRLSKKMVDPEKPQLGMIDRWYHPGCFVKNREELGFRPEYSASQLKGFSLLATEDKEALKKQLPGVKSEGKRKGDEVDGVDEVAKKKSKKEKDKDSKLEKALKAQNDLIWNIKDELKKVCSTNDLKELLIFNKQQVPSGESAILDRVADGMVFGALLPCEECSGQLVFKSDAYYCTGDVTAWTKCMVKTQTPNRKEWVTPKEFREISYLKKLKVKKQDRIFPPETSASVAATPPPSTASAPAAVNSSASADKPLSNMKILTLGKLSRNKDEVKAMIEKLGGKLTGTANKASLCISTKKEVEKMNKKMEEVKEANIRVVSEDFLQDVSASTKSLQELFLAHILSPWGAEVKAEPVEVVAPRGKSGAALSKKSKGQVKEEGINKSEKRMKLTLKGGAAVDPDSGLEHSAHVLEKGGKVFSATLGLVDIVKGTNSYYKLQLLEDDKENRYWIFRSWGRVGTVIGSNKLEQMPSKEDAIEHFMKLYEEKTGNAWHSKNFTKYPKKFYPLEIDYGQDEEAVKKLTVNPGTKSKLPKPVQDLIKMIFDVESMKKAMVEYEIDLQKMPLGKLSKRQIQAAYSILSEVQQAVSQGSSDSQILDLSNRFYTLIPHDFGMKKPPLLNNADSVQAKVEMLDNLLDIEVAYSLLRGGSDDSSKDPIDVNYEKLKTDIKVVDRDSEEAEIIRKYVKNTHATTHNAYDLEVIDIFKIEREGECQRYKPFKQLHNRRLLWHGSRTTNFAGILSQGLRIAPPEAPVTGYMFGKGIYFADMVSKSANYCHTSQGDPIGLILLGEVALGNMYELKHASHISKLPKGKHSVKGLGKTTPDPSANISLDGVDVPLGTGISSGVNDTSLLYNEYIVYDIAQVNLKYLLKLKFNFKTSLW
Sequence of PARP 2 (Q9UGN5 whole entry): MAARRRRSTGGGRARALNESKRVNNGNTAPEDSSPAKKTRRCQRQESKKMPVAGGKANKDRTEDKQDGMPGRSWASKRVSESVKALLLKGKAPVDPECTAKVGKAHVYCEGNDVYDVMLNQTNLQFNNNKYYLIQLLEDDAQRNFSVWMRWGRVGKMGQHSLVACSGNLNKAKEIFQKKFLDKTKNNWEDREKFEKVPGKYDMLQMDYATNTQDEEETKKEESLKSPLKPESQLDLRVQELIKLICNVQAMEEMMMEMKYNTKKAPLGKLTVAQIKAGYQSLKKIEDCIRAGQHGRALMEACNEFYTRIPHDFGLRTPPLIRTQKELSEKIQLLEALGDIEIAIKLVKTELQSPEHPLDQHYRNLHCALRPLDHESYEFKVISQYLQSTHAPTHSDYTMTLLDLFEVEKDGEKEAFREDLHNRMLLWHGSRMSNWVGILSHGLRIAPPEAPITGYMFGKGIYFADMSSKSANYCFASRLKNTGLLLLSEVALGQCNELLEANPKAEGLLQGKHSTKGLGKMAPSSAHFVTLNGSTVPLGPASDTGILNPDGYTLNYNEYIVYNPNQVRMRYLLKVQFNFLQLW

For Cc1ccc2c(=O)[nH]c(CSc3ncccn3)nc2c1C [ITK1, 7,8-dimethyl-2-((pyrimidin-2-ylthio)methyl)quinazolin-4(3H)-one], the IC50 (PARP 1) was greater than 30 µM, the IC50 (PARP 2) was 17.4 ± 3.3 µM and the IC50 (PARP 3) was greater than 30 µM. The IC50 (PARP5 bcat) was greater than 10 µM, the IC50 (PARP10cat) was 19.7 ± 0.95 µM and the IC50 (PARP11) was 0.55 ± 0.11 µM. For the same compound, the IC50 (PARP14 cat-wwe) was 8.55 ± 0.8 µM and the IC50 (PARP15 cat) was greater than 30 µM.

Cc1ccc2c(=O)[nH]c(CSc3ncnc4nc[nH]c34)nc2c1C [ITK2, 2-(((7H-purin-6-yl)thio)methyl)-7,8-dimethylquinazolin-4(3H)-one] was tested, and the IC50 (PARP 1) was greater than 30 µM, the IC50 (PARP 2) was greater than 30 µM and the IC50 (PARP 3) was greater than 30 µM. For the same compound, the IC50 (PARP5 bcat) was greater than 10 µM, the IC50 (PARP10cat) was 32.8 ± 3.6 µM and the IC50 (PARP11) was 4.52 ± 1.4 µM. It also gave an IC50 (PARP14 cat-wwe) of 7.87 ± 0.2 µM and an IC50 (PARP15 cat) greater than 30 µM.

Work on Cc1ccc2c(=O)[nH]c(CSc3nnc(N)[nH]3)nc2c1C [ITK3, 2-(((5-amino-4H-1,2,4-triazol-3-yl)thio)methyl)-7,8-dimethylquinazolin-4(3H)-one] yielded an IC50 (PARP 1) greater than 30 µM, an IC50 (PARP 2) greater than 30 µM and an IC50 (PARP 3) greater than 30 µM. It also gave an IC50 (PARP5 bcat) greater than 10 µM, an IC50 (PARP10cat) of 27.9 ± 3.9 µM and an IC50 (PARP11) of 13.6 ± 1.4 µM. It also gave an IC50 (PARP14 cat-wwe) of 6.73 ± 1.8 µM and an IC50 (PARP15 cat) greater than 30 µM.

With Cc1ccc2c(=O)[nH]c(CSc3ccc(C(=O)O)cc3)nc2c1C [ITK4, 4-(((7,8-dimethyl-4-oxo-3,4-dihydroquinazolin-2-yl)methyl)thio)benzoic acid] the IC50 (PARP 1) was greater than 30 µM, the IC50 (PARP 2) was 8.46 ± 1.4 µM and the IC50 (PARP 3) was greater than 30 µM. For the same compound, the IC50 (PARP5 bcat) was greater than 10 µM, the IC50 (PARP10cat) was 9.29 ± 0.2 µM and the IC50 (PARP11) was 5.5 ± 0.8 µM. It also gave an IC50 (PARP14 cat-wwe) of 8.71 ± 0.8 µM and an IC50 (PARP15 cat) of 6.85 ± 0.99 µM.

For C#Cc1ccc2c(=O)[nH]c(CSc3ccc(C(=O)O)cc3)nc2c1C [ITK5, 4-(((7-ethynyl-8-methyl-4-oxo-3,4-dihydroquinazolin-2-yl)methyl)thio)benzoic acid], the IC50 (PARP 1) was greater than 30 µM, the IC50 (PARP 2) was greater than 30 µM and the IC50 (PARP 3) was greater than 30 µM. For the same compound, the IC50 (PARP5 bcat) was greater than 10 µM, the IC50 (PARP10cat) was 5.4 ± 0.17 µM and the IC50 (PARP11) was 1.62 ± 0.33 µM. It also gave an IC50 (PARP14 cat-wwe) of 10.8 ± 0.75 µM and an IC50 (PARP15 cat) of 4.03 ± 0.77 µM.

CNCc1ccc(-c2[nH]c3cc(F)cc4c3c2CCNC4=O)cc1 [Rucaparib, reference compound] gave an IC50 (PARP11) of 3.4 ± 0.5 µM.

For C[C@]1(c2nc3c(C(N)=O)cccc3[nH]2)CCCN1 [veliparib, reference compound], the “Inhibition of H2O2-mediated PARP1 PARylation (PARP½ activity) in cells” value (PARP1/2) was “completely inhibits”.
